Results from paper PMC6199744, “Development of Chemical Proteomics for the Folateome and Analysis of the Kinetoplastid Folateome” (ACS Infectious Diseases, 2018).
Like-named read-outs stand apart in the source and are kept apart here.

Assays:
Assay type in all cases: binding
[1] = target: T1, HeLa cell extract proteins (Homo sapiens, UniProt Q9BVA1); conditions: HeLa; protein TUBB2B
T1 construct: endogenous in cells; host or cells: HeLa cell extract

[2] = target: T2, HeLa cell extract proteins (Homo sapiens, UniProt O00483); conditions: captured protein NDUFA4; HeLa
T2 construct: endogenous in cells; host or cells: HeLa cell extract
T2 sequence (O00483 whole entry): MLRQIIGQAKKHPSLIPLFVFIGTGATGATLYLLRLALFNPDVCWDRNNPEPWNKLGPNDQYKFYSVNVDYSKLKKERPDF

[3] = target: T3, HeLa cell extract proteins (Homo sapiens, UniProt P22061); conditions: protein PCMT1; HeLa
T3 construct: endogenous in cells; host or cells: HeLa cell extract
T3 sequence (P22061 whole entry): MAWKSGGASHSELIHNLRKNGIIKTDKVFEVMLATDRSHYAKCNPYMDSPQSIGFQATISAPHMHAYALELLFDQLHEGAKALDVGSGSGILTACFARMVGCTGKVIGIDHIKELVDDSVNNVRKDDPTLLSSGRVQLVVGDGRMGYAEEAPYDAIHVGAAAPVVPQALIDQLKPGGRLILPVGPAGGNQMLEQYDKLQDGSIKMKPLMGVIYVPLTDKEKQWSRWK

[4] = target: T4, HeLa cell extract proteins (Homo sapiens, UniProt Q10570)
T4 construct: endogenous in cells; host or cells: HeLa cell extract
T4 sequence (Q10570 1-1443): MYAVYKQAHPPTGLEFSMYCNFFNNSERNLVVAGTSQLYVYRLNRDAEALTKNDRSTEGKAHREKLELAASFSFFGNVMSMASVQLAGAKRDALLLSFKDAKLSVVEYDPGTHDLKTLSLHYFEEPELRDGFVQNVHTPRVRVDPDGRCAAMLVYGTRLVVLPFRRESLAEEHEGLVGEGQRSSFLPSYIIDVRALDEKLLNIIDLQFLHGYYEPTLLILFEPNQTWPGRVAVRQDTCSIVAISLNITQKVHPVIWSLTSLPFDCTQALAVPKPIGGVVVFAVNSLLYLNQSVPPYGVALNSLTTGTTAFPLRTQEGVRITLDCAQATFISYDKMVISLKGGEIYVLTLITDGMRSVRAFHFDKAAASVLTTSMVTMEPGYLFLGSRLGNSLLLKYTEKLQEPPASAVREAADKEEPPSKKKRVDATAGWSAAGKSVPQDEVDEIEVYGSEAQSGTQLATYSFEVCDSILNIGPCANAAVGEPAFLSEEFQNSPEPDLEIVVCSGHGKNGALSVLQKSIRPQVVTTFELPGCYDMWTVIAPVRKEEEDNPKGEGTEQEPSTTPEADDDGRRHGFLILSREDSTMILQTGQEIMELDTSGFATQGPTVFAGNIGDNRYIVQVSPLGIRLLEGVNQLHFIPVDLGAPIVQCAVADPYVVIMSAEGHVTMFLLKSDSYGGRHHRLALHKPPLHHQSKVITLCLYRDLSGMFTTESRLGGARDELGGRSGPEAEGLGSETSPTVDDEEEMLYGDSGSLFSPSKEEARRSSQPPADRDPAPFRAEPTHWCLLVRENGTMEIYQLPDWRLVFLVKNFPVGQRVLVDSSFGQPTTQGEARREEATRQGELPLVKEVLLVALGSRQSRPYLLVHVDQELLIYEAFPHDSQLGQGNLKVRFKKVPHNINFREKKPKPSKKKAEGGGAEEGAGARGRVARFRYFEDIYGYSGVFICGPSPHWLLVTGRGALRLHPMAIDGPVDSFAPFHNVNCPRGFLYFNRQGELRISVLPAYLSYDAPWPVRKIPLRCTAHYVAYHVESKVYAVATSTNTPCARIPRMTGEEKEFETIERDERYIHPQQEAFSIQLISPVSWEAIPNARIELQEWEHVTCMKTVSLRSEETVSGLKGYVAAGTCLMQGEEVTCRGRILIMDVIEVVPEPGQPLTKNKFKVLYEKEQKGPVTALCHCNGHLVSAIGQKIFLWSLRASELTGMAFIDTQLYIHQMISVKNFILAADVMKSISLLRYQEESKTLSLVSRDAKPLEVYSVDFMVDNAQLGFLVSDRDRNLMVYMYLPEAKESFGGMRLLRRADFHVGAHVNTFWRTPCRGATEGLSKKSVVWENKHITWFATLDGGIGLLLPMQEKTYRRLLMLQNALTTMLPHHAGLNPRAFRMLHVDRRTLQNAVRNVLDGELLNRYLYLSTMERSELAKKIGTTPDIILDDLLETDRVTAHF

[5] = target: T5, HeLa cell extract proteins (Homo sapiens, UniProt P62888)
T5 construct: endogenous in cells; host or cells: HeLa cell extract

[6] = target: T6, HeLa cell extract proteins (Homo sapiens, UniProt Q9NNW5)
T6 construct: endogenous in cells; host or cells: HeLa cell extract
T6 sequence (Q9NNW5 1-1121): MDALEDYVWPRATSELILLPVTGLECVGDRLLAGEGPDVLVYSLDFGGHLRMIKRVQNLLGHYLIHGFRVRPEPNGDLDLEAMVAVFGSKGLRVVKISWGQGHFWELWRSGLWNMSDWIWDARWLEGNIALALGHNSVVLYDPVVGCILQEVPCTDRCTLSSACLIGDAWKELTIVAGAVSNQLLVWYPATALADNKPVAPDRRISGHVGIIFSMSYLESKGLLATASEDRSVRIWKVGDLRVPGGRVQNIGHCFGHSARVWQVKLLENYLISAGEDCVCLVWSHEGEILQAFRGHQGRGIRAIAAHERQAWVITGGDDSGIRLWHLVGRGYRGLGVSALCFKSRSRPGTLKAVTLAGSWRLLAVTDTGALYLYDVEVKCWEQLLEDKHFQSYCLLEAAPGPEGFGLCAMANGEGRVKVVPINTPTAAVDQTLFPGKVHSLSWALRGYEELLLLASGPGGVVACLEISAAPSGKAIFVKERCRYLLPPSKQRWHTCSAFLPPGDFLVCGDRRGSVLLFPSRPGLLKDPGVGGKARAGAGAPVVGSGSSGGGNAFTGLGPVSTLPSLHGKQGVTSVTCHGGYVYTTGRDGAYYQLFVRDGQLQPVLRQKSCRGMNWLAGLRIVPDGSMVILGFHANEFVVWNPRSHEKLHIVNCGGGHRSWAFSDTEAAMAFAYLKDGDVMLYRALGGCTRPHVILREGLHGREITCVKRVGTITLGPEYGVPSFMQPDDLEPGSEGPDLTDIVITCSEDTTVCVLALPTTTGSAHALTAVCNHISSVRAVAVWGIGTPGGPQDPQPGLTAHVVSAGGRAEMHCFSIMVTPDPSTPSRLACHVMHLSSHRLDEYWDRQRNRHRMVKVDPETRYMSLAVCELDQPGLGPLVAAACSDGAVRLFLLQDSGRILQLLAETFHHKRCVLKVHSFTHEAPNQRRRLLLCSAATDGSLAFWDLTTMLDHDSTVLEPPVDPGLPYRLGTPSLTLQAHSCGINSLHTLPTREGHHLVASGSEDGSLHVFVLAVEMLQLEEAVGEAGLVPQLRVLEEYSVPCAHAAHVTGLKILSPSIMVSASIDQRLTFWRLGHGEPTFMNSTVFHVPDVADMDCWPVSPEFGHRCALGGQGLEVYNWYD

T1 sequence (Q9BVA1 whole entry): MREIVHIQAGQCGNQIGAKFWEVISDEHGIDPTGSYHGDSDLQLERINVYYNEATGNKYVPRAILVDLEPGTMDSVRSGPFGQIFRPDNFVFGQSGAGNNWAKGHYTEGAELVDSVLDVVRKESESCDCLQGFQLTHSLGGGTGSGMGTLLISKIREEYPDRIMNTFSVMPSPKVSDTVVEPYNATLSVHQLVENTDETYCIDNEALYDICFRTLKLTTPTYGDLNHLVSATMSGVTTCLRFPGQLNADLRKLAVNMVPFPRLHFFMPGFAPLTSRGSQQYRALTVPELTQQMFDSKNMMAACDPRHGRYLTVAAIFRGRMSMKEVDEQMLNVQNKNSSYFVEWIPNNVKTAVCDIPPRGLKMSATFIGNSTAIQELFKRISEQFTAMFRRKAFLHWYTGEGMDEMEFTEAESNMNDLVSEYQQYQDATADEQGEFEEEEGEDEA

Structure (SMILES)	fold changes relative to vehicle control [1]	fold changes relative to vehicle control [2]	fold changes relative to vehicle control [3]	fold changes relative to vehicle control ([4]; HeLa, captured protein CPSF1)	fold changes relative to vehicle control ([5]; protein RPL30, HeLa)	fold changes relative to vehicle control ([6]; HeLa, protein WDR6)	also measured
Nc1nc2cccc(-c3ccccc3)c2n1Cc1ccc(Cl)c(Cl)c1 [compound 3]	1.11	0.82	0.88	–	–	–	–
Nc1nc2[nH]cc(CCc3ccc(C(=O)N[C@@H](CCC(=O)O)C(=O)O)cc3)c2c(=O)[nH]1 [PTX, pemetrexed]	–	–	–	–	–	–	fold changes relative to vehicle control [4]: 0.88; fold changes relative to vehicle control [5]: 0.89; fold changes relative to vehicle control [6]: 1.1
Nc1nc2c(c(=O)[nH]1)N(C=O)C(CNc1ccc(C(=O)N[C@@H](CCC(=O)O)C(=O)O)cc1)CN2 (stereo partly drawn) [LEU, leucovorin]	–	–	–	0.95	0.86	0.96	–
CCCCCCOc1cccc(Cc2cnc(N)nc2N)c1 [compound 2]	1.03	1.17	1.28	–	–	–	–
NCCOCCOCC(=O)Nc1nc2ncc(CNc3ccc(C(=O)NC(CCC(=O)O)C(=O)O)cc3)nc2c(=O)[nH]1 (stereo not drawn) [compound 6]	–	–	–	0.97	1	1.19	–
CCCCCCOc1ccc(Cc2cnc(N)nc2N)cc1 [compound 1]	1.07	0.8	0.92	–	–	–	–
NCCCNc1ccc(C(=O)NC(CCC(=O)O)C(=O)O)cc1 (stereo not drawn) [compound 7]	–	–	–	0.93	0.92	1.06	–
